Experimental data reported in US20030129205A1, “Composition and method for the prevention and/or the treatment of allergy” (priority 2000, published 2003).

What was measured:
CD4+ T cells = assay: in vitro T cell proliferation assay ([3H]thymidine incorporation) with T cells of immunized Balb/c mice; format: cell-based, mouse; conditions: for proliferation of T cells from immunized mice: Balb/c (H-2d) mice immunized in footpad with 100 μg in complete Freund's adjuvant, lymph node CD4+ T cells restimulated in vitro with myoglobin or Der p II; for immunogenicity: Balb/c mice, subcutaneous immunization
Experimental: In order to determine experimentally whether this sequence homology could result in functional cross-reactivity between Der p II and myoglobin, mice were immunized by subcutaneous injections of FIS (SEQ ID NO. 2) or myoglobin.
Balb/c mice (H-2^d) were injected once in the footpad with 50 μl of a solution containing 100 μg of peptide or myoglobin emulsified in complete Freund's adjuvant. Ten days later, regional lymph nodes were retrieved, teased and extensively washed with sterile saline to recover cells. The cell suspension was then washed in RPMI buffer (Gibco). Pure CD4^+ T cell suspensions were obtained by negative selection using antibodies towards CD45R, CD11b and CD11c, all conjugated to magnetic beads according to the manufacturer's instructions (Miltenyi Biotech GmbH, Germany).
(§1) Functional cross-reactivity between Der p II, FIS and myoglobin was checked by in vitro proliferation assays. Thus, the T cell suspension was adjusted to 5×10^6 cells per ml in RPMI 1640 buffer supplemented with 2 mM glutamine, 100 U penicillin/ml, 100 jug streptomycin/ml, 5% heat-inactivated fetal calf serum and 5×10^−5 M 2-mercaptoethanol. One hundred μl of the T-cell-enriched fraction ([…]) was cultured in 100 μl of the above-described medium containing different concentrations of test peptide or myoglobin, and mitomycin-C treated syngeneic naive spleen cells as a source of APC (4×10^5 per well). Incubation was carried out into a humidified atmosphere of 5% CO2 in air for 4 days, and cells were pulsed during a final 18-h incubation with 1 μCi of [^3H] thymidine per well. The cells were then harvested onto glass fibres using a multiple-cell harvester. Radioactivity incorporated into proliferating cells was determined in a liquid scintillation counter. All tests were carried out in triplicate. The proliferative response was expressed as c.p.m.×10 after subtracting background value incorporation in the absence of antigen.

[1] = test system: T cells from peripheral blood; assay: proliferation assay with T cells from peripheral blood of atopic individuals; format: cell-based
Experimental: as §1
Moreover, T cells were prepared from the peripheral blood of atopic individuals. Thus, a 50-ml sample of peripheral blood was obtained in heparin. The blood sample was diluted vol/vol in RPMI 1640 and applied to a Ficoll-Hypaque density gradient. […]

mouse T cells = assay: T cell proliferation assay in mice of additional H-2 haplotypes; format: cell-based; conditions: H-2b (C57BL/6), H-2k (C3H), H-2d (SJL) as printed; significant proliferative response for the three haplotypes

FISEAIIHVLHSR (Physeter catodon)
proliferation of T cells from immunized mice (CD4+ T cells): proliferated to myoglobin and to Der p II | immunogenicity (CD4+ T cells): immunogen

SEPCIIHRGKP (Dermatophagoides) [SEQ ID NO. 1]
proportion of human subjects recognising the T cell epitope [1]: more than 85% | recognition of T cell epitope in additional mouse H-2 haplotypes (mouse T cells): recognised in the context of three additional mouse H-2 haplotypes

B1: myoglobin: Sheep myoglobin purchased from Sigma Chemicals; red pigment, oxygen reservoir of muscle cells (protein, UniProt P02190 2-154, looked up)
Myoglobin: GLSDGEWQLVLNAWGKVEADVAGHGQEVLIRLFTGHPETLEKFDKFKHLKTEAEMKASEDLKKHGNTVLTALGGILKKKGHHEAEVKHLAESHANKHKIPVKYLEFISDAIIHVLHAKHPSDFGADAQGAMSKALELFRNDMAAQYKVLGFQG
proliferation of T cells from immunized mice (CD4+ T cells): proliferated to myoglobin and to Der p II | immunogenicity (CD4+ T cells): immunogen
